We go through one molecule from patent publication US20240268385A1, “PEST CONTROL COMPOSITION” (DAIKIN INDUSTRIES, LTD., priority 2021, published 2024).

Like-named read-outs stand apart in the source and are kept apart here.

Assay [1] relates to brown blotch disease pathogens. The note with it: 500 ppm spray, cucumbers at 2-leaf stage, 8 days in humid room. As to the method: (§1) 9 parts by mass of a subagent of a formulation (xylene:DMF:Solpol 3005X (Toho Chemical Industry Co., Ltd.)=4:4:1) was mixed with 1 part by mass of dexmedetomidine (Wako) to prepare a 10% emulsion. A diluted solution of the 10% emulsion with a predetermined concentration was prepared by using a spreading agent, Grameen S (Toyo Green Co., Ltd.), diluted 10000-fold with water. Sample crops were individually sprayed with a sufficient amount of the diluted chemical solution by using a spray gun.
(§2) Preventive value=100−(damage in treated group/damage in untreated group)×100 (N)
Test Method for Brown Blotch Disease Pathogen
Cucumbers at the 2-leaf stage were sprayed with the chemical solution and inoculated with a spray of a spore suspension of brown blotch disease pathogens, and then placed in a humid room for 8 days. The area of lesions on leaves was measured, and the preventive value was calculated according to formula (N).

Assay [2] deals with Frankliniella occidentalis (First-instar Larva). Briefly: whole plant or invertebrate. The conditions noted are these: in Brassica oleracea, 120 h. How it is done: as §1
(§3) Test Method for Bemisia tabaci (Adult) and Frankliniella Occidentalis (First-Instar Larva)
(§4) After the sample crops were sprayed with the chemical solution, they were air-dried, and then the leaves were cut and stored in cups. While test insects were released, the number of insects released was counted, and the cups were covered with a lid. The mortality rate was calculated from the number of surviving insects after 2 days for Bemisia tabaci and after 5 days for Frankliniella occidentalis. Their corrected mortality rate was calculated from the following formula:
(§5) Corrected mortality rate (%)=[(survival rate of untreated group−survival rate of treated group)/survival rate of untreated group]×100

Assay [3] relates to Bemisia tabaci (Adult Insect). Briefly: whole plant or invertebrate. The note with it: in Brassica oleracea, 48 h. How it is done:
as §1, §3, §4, §5

The test system of assay [4] is phytophthora disease pathogens. The note with it: in vivo.
For another assay, the system named is sheath blight fungi. The conditions noted are these: 500 ppm spray, rice plants at 5-leaf stage, 6 days in humid room.
A further assay relates to blast disease pathogens. The note with it: 500 ppm spray, rice seedlings at 2.5-leaf stage, 8 days in humid room. As to the method: as §1
Test Method for Blast Disease Pathogen
Seedlings at the 2.5-leaf stage were sprayed with the chemical solution, and placed in a humid room for 8 days with blast disease pathogens, followed by measuring the area of lesions. The preventive value was calculated from the ratio to the untreated group according to the following formula (N):
as §2

Assay [5] concerns Nilaparvata lugens (Three-instar Larva). Briefly: whole plant or invertebrate. The conditions noted are these: in Oryza sativa, 144 h. How it is done:
as §1
(§6) Test Method for Nilaparvata lugens (Third-Instar Larva) and Nephotettix cincticeps (Third-Instar Larvae)
(§7) After the sample crops were sprayed with the chemical solution, they were air-dried, and 10 test insects were released. To prevent the escape of the test insects, plants were covered with cups and nylon gauze. The mortality rate was calculated from the number of surviving insects after 6 days, and the corrected mortality rate was calculated from the following formula:
as §5

For assay [6], the system named is Nephotettix cincticeps (Three-instar Larva). Briefly: whole plant or invertebrate. The conditions noted are these: in Oryza sativa, 144 h. How it is done:
as §1, §6, §7, §5

The mark [7] stands for this setting: read-out: Insect Mortality Rate.
[8] abbreviates: read-out: Insect Mortality Rate (Corrected).

One may read the mortality as the percentage killed. For `Cc1cccc([C@H](C)c2cnc[nH]2)c1C` [Chemical Agent, dexmedetomidine], the “Brown Blotch Disease Expansion Area” value in assay [1] came to 2%. Besides, in assay [1], the “Brown Blotch Disease Preventive Value” is 86. Moreover, the mortality at 100 ppm in assay [2] (setting [7]), in assay [2] (setting [8]), in assay [3] (setting [7]), in assay [3] (setting [8]), in assay [5] (setting [7]) and in assay [5] (setting [8]) was 100% each time. The mortality at 100 ppm in assay [6] (setting [7]) and in assay [6] (setting [8]) was 100% each time. Also, the mortality at 500 ppm in assay [2] (setting [7]), in assay [2] (setting [8]), in assay [3] (setting [7]), in assay [3] (setting [8]), in assay [5] (setting [7]) and in assay [5] (setting [8]) was 100% throughout. Besides, the mortality at 500 ppm in assay [6] (setting [7]) and in assay [6] (setting [8]) was 100% throughout. Moreover, the “Phytophthora Expansion Area” value in assay [4] amounted to 15%. Further, the “Phytophthora Preventive Value” in assay [4] was determined as 84. In addition, the “Sheath Blight Disease Lesion Elongation” value in the assay with sheath blight fungi came to 3 mm. Also, the “Sheath Blight Disease Preventive Value” in the assay on sheath blight fungi was 98. Also, in the assay with blast disease pathogens, the “Blast Disease Expansion Area Percentage” value was found to be 0%. The “Blast Disease Preventive Value” with blast disease pathogens is reported as 100.
